{
  "source": "ChEMBL document CHEMBL1921676",
  "about": "“Pyrazolone-based anaplastic lymphoma kinase (ALK) inhibitors: control of selectivity by a benzyloxy group” (Bioorg Med Chem Lett, 2011)",
  "key": {"[1]": {"target": "ALK tyrosine kinase receptor (Homo sapiens, UniProt Q9UM73)", "sequence (Q9UM73 whole entry)": "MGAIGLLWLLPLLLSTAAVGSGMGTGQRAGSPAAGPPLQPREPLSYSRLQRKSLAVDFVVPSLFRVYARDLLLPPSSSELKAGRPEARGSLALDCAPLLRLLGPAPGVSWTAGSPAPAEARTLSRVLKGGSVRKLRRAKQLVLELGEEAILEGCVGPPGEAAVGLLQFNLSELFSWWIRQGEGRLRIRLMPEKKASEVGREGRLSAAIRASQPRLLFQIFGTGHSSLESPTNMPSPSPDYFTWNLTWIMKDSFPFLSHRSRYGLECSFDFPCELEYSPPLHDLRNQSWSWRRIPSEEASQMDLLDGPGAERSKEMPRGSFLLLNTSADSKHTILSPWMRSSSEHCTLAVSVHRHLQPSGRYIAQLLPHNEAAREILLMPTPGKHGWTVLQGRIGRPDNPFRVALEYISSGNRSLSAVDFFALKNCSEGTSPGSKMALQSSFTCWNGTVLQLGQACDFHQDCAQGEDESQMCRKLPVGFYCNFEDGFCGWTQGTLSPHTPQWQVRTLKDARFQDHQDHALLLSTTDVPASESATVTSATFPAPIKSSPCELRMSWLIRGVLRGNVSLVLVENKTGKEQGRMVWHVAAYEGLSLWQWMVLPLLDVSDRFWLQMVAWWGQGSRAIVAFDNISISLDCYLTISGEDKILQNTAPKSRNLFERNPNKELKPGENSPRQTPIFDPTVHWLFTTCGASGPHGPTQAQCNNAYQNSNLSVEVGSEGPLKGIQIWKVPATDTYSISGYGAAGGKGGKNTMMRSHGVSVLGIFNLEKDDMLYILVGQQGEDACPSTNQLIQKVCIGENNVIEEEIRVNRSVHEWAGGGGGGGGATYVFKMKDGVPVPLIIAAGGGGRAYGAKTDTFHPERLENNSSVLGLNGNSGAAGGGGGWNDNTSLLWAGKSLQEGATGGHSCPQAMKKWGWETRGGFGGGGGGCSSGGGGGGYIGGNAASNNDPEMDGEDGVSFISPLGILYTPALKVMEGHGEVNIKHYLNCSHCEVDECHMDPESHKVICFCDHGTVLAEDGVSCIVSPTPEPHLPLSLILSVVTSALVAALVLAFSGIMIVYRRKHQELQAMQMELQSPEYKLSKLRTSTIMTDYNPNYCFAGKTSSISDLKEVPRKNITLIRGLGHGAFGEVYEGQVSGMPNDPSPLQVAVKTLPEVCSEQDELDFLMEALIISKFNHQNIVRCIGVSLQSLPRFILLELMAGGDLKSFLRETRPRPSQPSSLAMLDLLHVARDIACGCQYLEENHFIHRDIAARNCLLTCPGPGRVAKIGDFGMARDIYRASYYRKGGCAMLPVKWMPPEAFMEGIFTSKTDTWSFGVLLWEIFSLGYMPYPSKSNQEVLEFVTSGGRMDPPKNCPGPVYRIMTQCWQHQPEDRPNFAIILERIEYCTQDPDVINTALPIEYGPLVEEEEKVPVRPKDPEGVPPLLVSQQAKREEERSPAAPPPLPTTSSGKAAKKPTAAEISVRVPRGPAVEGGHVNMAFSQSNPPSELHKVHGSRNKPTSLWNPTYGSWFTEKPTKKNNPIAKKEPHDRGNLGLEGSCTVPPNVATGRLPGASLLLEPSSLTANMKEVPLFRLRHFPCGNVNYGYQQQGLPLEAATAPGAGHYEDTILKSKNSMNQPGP", "experiment": "Inhibition of ALK"}, "[2]": {"experiment": "Half life in human liver microsomes"}, "Insulin receptor": {"target": "Insulin receptor (Homo sapiens, UniProt P06213)", "experiment": "Inhibition of GST-tagged intracellular domain of IR by homogeneous time-resolved fluorescence assay", "format": "single protein"}, "[3]": {"experiment": "Half life in mouse liver microsomes"}, "[4]": {"experiment": "Half life in dog liver microsomes"}, "[5]": {"experiment": "Half life in rat liver microsomes"}, "[6]": {"target": "T1, Vascular endothelial growth factor receptor 2 (Homo sapiens, UniProt P35968)", "T1 sequence (P35968 whole entry, the tested form may be a part)": "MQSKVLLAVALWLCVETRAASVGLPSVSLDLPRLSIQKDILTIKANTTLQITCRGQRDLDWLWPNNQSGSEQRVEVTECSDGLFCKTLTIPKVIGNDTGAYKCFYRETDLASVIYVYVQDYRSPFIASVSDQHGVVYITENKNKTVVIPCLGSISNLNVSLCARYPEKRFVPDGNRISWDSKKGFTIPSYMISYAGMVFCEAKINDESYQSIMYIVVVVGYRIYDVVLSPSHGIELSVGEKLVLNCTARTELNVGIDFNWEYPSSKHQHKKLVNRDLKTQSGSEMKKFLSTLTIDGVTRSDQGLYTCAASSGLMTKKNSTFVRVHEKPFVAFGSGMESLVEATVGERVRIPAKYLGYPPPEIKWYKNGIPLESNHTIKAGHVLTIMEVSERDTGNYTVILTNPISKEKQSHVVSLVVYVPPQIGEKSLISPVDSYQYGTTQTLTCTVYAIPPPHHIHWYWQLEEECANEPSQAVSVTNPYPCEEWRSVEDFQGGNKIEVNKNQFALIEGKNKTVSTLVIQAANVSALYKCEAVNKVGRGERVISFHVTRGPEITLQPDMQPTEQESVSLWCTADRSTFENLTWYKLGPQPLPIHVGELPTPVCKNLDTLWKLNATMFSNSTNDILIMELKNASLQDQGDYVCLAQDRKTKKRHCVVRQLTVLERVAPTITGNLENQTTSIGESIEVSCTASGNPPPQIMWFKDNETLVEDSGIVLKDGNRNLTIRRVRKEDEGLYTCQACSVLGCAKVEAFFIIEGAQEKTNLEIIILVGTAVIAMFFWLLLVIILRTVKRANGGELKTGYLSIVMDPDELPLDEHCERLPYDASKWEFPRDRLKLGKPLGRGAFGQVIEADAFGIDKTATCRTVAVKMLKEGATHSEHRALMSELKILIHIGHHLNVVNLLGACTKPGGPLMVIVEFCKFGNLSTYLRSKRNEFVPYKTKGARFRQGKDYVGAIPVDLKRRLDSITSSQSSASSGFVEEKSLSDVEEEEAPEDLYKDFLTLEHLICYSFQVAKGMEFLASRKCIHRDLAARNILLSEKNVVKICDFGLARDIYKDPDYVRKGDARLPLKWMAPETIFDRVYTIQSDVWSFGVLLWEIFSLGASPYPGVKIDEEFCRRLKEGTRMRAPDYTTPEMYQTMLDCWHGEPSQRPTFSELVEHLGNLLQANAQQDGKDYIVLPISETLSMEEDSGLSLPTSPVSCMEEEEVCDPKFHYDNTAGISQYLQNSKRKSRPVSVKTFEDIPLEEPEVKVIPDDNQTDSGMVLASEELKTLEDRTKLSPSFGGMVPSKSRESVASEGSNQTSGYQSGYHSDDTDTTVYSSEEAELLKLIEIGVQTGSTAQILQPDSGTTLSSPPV", "experiment": "Inhibition of human cytoplasmic domain of VEGFR-2 by time-resolved fluorescence assay"}, "[7]": {"target": "T1, Vascular endothelial growth factor receptor 2", "experiment": "Inhibition of human cytoplasmic domain of VEGFR-2 at 1 uM by time-resolved fluorescence assay"}, "[8]": {"experiment": "AUC in rat at 1 mg/kg, iv", "format": "ADME, organism-based", "design": "dose 1 mg/kg, route intravenous", "conditions": "plasma"}, "[9]": {"experiment": "Clearance in rat at 1 mg/kg, iv", "format": "ADME, organism-based", "design": "dose 1 mg/kg, route intravenous", "conditions": "in vivo"}, "[10]": {"experiment": "Volume of distribution in rat at 1 mg/kg, iv", "format": "ADME, organism-based", "design": "dose 1 mg/kg, route intravenous", "conditions": "in vivo"}, "[11]": {"experiment": "Half life in rat at 1 mg/kg, iv", "format": "ADME, organism-based", "design": "dose 1 mg/kg, route intravenous", "conditions": "in vivo"}, "[12]": {"experiment": "AUC in rat at 5 mg/kg, po", "format": "ADME, organism-based", "design": "dose 5 mg/kg, route oral", "conditions": "plasma"}},
  "data": [
    {"smiles": "Cc1nnsc1C1=NNC(=O)/C1=C\\c1cn(C)c2cccc(OCc3ccccn3)c12", "values": [
      {"measurement": "IC50", "setting": "[1]", "result": 158, "unit": "nM"}
    ]},
    {"smiles": "Cc1nnsc1C1=NNC(=O)/C1=C\\c1cn(C)c2cccc(OCCN(C)C)c12", "values": [
      {"measurement": "IC50", "setting": "[1]", "result": 291, "unit": "nM"}
    ]},
    {"smiles": "CCOc1cccc2c1c(/C=C1\\C(=O)NN=C1c1snnc1C)cn2C", "values": [
      {"measurement": "half-life", "setting": "[2]; microsomes", "result": 6, "unit": "min"},
      {"measurement": "IC50", "setting": "Insulin receptor", "result": 998, "unit": "nM"},
      {"measurement": "half-life", "setting": "[3]; microsomes", "result": 5, "unit": "min"},
      {"measurement": "half-life", "setting": "[4]; microsomes", "result": 5, "unit": "min"},
      {"measurement": "half-life", "setting": "[5]; microsomes", "result": 5, "unit": "min"}
    ]},
    {"smiles": "Cn1cc(/C=C2\\C(=O)NN=C2c2nc(C(F)(F)F)cs2)c2c(OCc3ccccc3)cccc21", "values": [
      {"measurement": "IC50", "setting": "[1]", "result": 10000, "unit": "nM"}
    ]},
    {"smiles": "Cc1nnsc1C1=NNC(=O)/C1=C\\c1cn(C)c2cccc(OCc3ccc(F)cc3)c12", "values": [
      {"measurement": "IC50", "setting": "Insulin receptor", "result": "> 10000", "unit": "nM"}
    ]},
    {"smiles": "Cc1nnsc1C1=NNC(=O)/C1=C\\c1cn(C)c2cccc(OCc3ccccc3)c12", "values": [
      {"measurement": "half-life", "setting": "[2]; liver microsomes", "result": 32, "unit": "min"},
      {"measurement": "IC50", "setting": "[6]", "result": "> 300", "unit": "nM"},
      {"measurement": "IC50", "setting": "Insulin receptor", "result": "> 10000", "unit": "nM"},
      {"measurement": "half-life", "setting": "[3]; liver microsomes", "result": "> 40", "unit": "min"},
      {"measurement": "half-life", "setting": "[4]; liver microsomes", "result": 29, "unit": "min"},
      {"measurement": "half-life", "setting": "[5]; liver microsomes", "result": "> 40", "unit": "min"}
    ]},
    {"smiles": "Cn1cc(/C=C2\\C(=O)NN=C2c2nccs2)c2c(OCc3ccccc3F)cccc21", "values": [
      {"measurement": "IC50", "setting": "Insulin receptor", "result": "> 10000", "unit": "nM"}
    ]},
    {"smiles": "Cn1cc(/C=C2\\C(=O)NN=C2c2nccs2)c2c(OCc3cccc(F)c3F)cccc21", "values": [
      {"measurement": "half-life", "setting": "[2]; liver microsomes", "result": 14, "unit": "min"},
      {"measurement": "IC50", "setting": "Insulin receptor", "result": 6500, "unit": "nM"},
      {"measurement": "half-life", "setting": "[3]; liver microsomes", "result": 8, "unit": "min"},
      {"measurement": "half-life", "setting": "[4]; liver microsomes", "result": 12, "unit": "min"},
      {"measurement": "half-life", "setting": "[5]; liver microsomes", "result": 10, "unit": "min"}
    ]},
    {"smiles": "Cc1nnsc1C1=NNC(=O)/C1=C\\c1cn(C)c2cccc(OCc3c(F)cccc3Cl)c12", "values": [
      {"measurement": "IC50", "setting": "Insulin receptor", "result": 720, "unit": "nM"}
    ]},
    {"smiles": "Cn1cc(/C=C2\\C(=O)NN=C2c2nccs2)c2c(OCc3c(F)cccc3Cl)cccc21", "values": [
      {"measurement": "IC50", "setting": "Insulin receptor", "result": 1410, "unit": "nM"}
    ]},
    {"smiles": "Cc1nc(COc2cccc3c2c(/C=C2\\C(=O)NN=C2c2snnc2C)cn3C)cs1", "values": [
      {"measurement": "IC50", "setting": "[1]", "result": 3000, "unit": "nM"}
    ]},
    {"smiles": "Cn1cc(/C=C2\\C(=O)NN=C2c2nccs2)c2c(OCc3ccc(F)cc3F)cccc21", "values": [
      {"measurement": "IC50", "setting": "[1]", "result": 229, "unit": "nM"}
    ]},
    {"smiles": "Cc1nnsc1C1=NNC(=O)/C1=C\\c1cn(C)c2cccc(OCc3c(F)ccc(Cl)c3F)c12", "values": [
      {"measurement": "IC50", "setting": "Insulin receptor", "result": 861, "unit": "nM"}
    ]},
    {"smiles": "Cn1cc(/C=C2\\C(=O)NN=C2c2cccs2)c2c(OCc3ccccc3)cccc21", "values": [
      {"measurement": "IC50", "setting": "[1]", "result": 104, "unit": "nM"}
    ]},
    {"smiles": "CC(Oc1cccc2c1c(/C=C1\\C(=O)NN=C1c1nccs1)cn2C)c1ccccc1", "note": "(stereo not drawn)", "values": [
      {"measurement": "IC50", "setting": "Insulin receptor", "result": "> 10000", "unit": "nM"}
    ]},
    {"smiles": "Cc1nnsc1C1=NNC(=O)/C1=C\\c1cn(C)c2cccc(OCc3ccccc3F)c12", "values": [
      {"measurement": "IC50", "setting": "Insulin receptor", "result": "> 10000", "unit": "nM"}
    ]},
    {"smiles": "CN(C)c1nnc(C2=NNC(=O)/C2=C\\c2cn(C)c3cccc(OCc4ccccc4)c23)s1", "values": [
      {"measurement": "IC50", "setting": "[1]", "result": 4600, "unit": "nM"}
    ]},
    {"smiles": "Cn1cc(/C=C2\\C(=O)NN=C2c2nccs2)c2c(OCc3cccc(F)c3)cccc21", "values": [
      {"measurement": "half-life", "setting": "[2]; liver microsomes", "result": 10, "unit": "min"},
      {"measurement": "IC50", "setting": "Insulin receptor", "result": "> 1000", "unit": "nM"},
      {"measurement": "half-life", "setting": "[3]; liver microsomes", "result": 6, "unit": "min"},
      {"measurement": "half-life", "setting": "[4]; liver microsomes", "result": 8, "unit": "min"},
      {"measurement": "inhibition", "setting": "[7]", "result": 50, "unit": "%"},
      {"measurement": "half-life", "setting": "[5]; liver microsomes", "result": 8, "unit": "min"}
    ]},
    {"smiles": "Cn1cc(/C=C2\\C(=O)NN=C2c2nccs2)c2c(OCc3c(F)cccc3F)cccc21", "values": [
      {"measurement": "half-life", "setting": "[2]; microsomes", "result": 7, "unit": "min"},
      {"measurement": "IC50", "setting": "Insulin receptor", "result": 428, "unit": "nM"},
      {"measurement": "half-life", "setting": "[3]; microsomes", "result": 6, "unit": "min"},
      {"measurement": "half-life", "setting": "[4]; microsomes", "result": 10, "unit": "min"},
      {"measurement": "half-life", "setting": "[5]; microsomes", "result": 6, "unit": "min"}
    ]},
    {"smiles": "Cn1cc(/C=C2\\C(=O)NN=C2c2nccs2)c2c(OCc3ccc(F)cc3)cccc21", "values": [
      {"measurement": "IC50", "setting": "[1]", "result": 63, "unit": "nM"}
    ]},
    {"smiles": "Cn1cc(/C=C2\\C(=O)NN=C2c2cccnc2)c2c(OCc3ccccc3)cccc21", "values": [
      {"measurement": "IC50", "setting": "[1]", "result": 54, "unit": "nM"}
    ]},
    {"smiles": "Cc1nnsc1C1=NNC(=O)/C1=C\\c1cn(C)c2cccc(OCc3ccc(F)cc3F)c12", "values": [
      {"measurement": "IC50", "setting": "Insulin receptor", "result": "> 10000", "unit": "nM"}
    ]},
    {"smiles": "Cc1nnsc1C1=NNC(=O)/C1=C\\c1cn(C)c2cccc(OCc3c(F)cccc3F)c12", "values": [
      {"measurement": "IC50", "setting": "Insulin receptor", "result": "> 1000", "unit": "nM"}
    ]},
    {"smiles": "Cn1cc(/C=C2\\C(=O)NN=C2c2nccs2)c2c(OCc3ccccc3)cccc21", "values": [
      {"measurement": "AUC", "setting": "[8]", "result": 972, "unit": "ng·h/mL"},
      {"measurement": "half-life", "setting": "[2]; microsomes", "result": 30, "unit": "min"},
      {"measurement": "clearance", "setting": "[9]", "result": 19.6, "unit": "mL/min"},
      {"measurement": "Vd", "setting": "[10]", "result": 1.2, "unit": "L/kg"},
      {"measurement": "IC50", "setting": "Insulin receptor", "result": 9120, "unit": "nM"},
      {"measurement": "half-life", "setting": "[11]", "result": 41.4, "unit": "min"},
      {"measurement": "half-life", "setting": "[3]; microsomes", "result": 25, "unit": "min"},
      {"measurement": "half-life", "setting": "[4]; microsomes", "result": 22, "unit": "min"},
      {"measurement": "inhibition", "setting": "[7]", "result": 50, "unit": "%"},
      {"measurement": "AUC", "setting": "[12]", "result": 13, "unit": "ng·h/mL"},
      {"measurement": "half-life", "setting": "[5]; microsomes", "result": 30, "unit": "min"}
    ]},
    {"smiles": "Cc1nnsc1C1=NNC(=O)/C1=C\\c1cn(C)c2cccc(OCc3c(F)ccc(F)c3Cl)c12", "values": [
      {"measurement": "IC50", "setting": "Insulin receptor", "result": 661, "unit": "nM"}
    ]},
    {"smiles": "Cc1nnsc1C1=NNC(=O)/C1=C\\c1cn(C)c2cccc(OCc3cccc(F)c3)c12", "values": [
      {"measurement": "IC50", "setting": "Insulin receptor", "result": "> 10000", "unit": "nM"}
    ]}
  ]
}
